Laboratory results from ChEMBL document CHEMBL4138112, “Synthesis of novel indole derivatives as promising DNA-binding agents and evaluation of antitumor and antitopoisomerase I activities” (Eur J Med Chem, 2017).
The source made the active and inactive calls. The calls are words filed in the database; no cut-off is given here.

Experiments:
[1] = tested on: HL-60; experiment: Cytotoxicity against human HL60 cells assessed as reduction in cell viability after 72 hrs by MTT assay; type: functional, cell-based; details: HL-60, 72 h
[2] = tested on: K562; experiment: Cytotoxicity against human K562 cells assessed as reduction in cell viability after 72 hrs by MTT assay; type: functional, cell-based; details: K562, 72 h
[3] = tested on: T47D; experiment: Cytotoxicity against human T47D cells assessed as reduction in cell viability after 72 hrs by MTT assay; type: functional, cell-based
[4] = tested on: MCF7; experiment: Cytotoxicity against human MCF7 cells assessed as reduction in cell viability after 72 hrs by MTT assay; type: functional, cell-based; details: MCF7, 72 h
[5] = tested on: Calf thymus DNA; experiment: Binding affinity to calf thymus DNA assessed as hyperchromicity at 10 to 80 uM by UV-Visible absorption spectroscopy relative to control; type: nucleic-acid assay; details: Bos taurus
[6] = tested on: Calf thymus DNA; experiment: Binding affinity to calf thymus DNA by UV-Visible absorption spectroscopy; type: nucleic-acid assay; details: Bos taurus
[7] = tested on: Calf thymus DNA; experiment: Inhibition of ethidium bromide binding to calf thymus DNA at 20 to 200 uM by fluorescence spectra analysis; type: nucleic-acid assay; details: Bos taurus
[8] = tested on: Calf thymus DNA; experiment: Inhibition of ethidium bromide binding to calf thymus DNA by fluorescence spectra analysis; type: nucleic-acid assay; details: Bos taurus
[9] = target: T1, DNA topoisomerase 1 (Homo sapiens) (UniProt P11387); experiment: Inhibition of human recombinant topoisomerase 1-mediated relaxation of supercoiled pUC19 DNA at 10 to 50 uM after 45 mins by ethidium bromide staining based agarose gel electrophoresis method
T1 sequence (whole entry): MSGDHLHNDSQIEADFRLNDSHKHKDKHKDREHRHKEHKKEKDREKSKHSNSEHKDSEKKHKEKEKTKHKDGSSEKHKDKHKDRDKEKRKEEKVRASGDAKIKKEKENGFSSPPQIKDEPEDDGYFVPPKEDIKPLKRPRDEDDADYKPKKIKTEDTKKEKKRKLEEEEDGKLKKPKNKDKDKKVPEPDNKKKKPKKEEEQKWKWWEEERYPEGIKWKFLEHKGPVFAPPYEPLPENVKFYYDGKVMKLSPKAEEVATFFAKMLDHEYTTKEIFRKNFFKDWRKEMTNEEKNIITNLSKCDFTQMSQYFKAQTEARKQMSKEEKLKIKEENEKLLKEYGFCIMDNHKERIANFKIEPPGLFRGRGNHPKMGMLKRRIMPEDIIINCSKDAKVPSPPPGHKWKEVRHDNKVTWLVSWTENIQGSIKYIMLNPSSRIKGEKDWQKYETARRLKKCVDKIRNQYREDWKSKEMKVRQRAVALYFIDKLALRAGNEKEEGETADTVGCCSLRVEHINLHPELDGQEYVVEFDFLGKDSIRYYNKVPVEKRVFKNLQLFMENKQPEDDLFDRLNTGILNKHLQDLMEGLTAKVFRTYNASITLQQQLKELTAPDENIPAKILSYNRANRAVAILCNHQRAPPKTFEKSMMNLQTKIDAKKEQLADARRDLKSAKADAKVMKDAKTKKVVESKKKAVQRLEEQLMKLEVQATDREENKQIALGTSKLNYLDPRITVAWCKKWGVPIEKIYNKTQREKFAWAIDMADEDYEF

[10] = tested on: Calf thymus DNA; experiment: Binding affinity to calf thymus DNA assessed as change in absorption maximum at 10 to 80 uM by UV-Visible absorption spectroscopy (reference value: 425 to 500 nanometer); type: nucleic-acid assay; details: Bos taurus
[11] = tested on: Calf thymus DNA; experiment: Binding affinity to calf thymus DNA assessed as hypochromicity at 10 to 80 uM by UV-Visible absorption spectroscopy relative to control; type: nucleic-acid assay; details: Bos taurus

| Structure (SMILES) | IC50 [1] [µM] | IC50 [2] [µM] | IC50 [3] [µM] | IC50 [4] [µM] | Activity [5] [%] | Kb [6] [×10⁴ /M] | Activity [7] | KSV [8] | inhibition [9] | Activity [10] [nm] | Activity [11] [%] |
| --- | --- | --- | --- | --- | --- | --- | --- | --- | --- | --- | --- |
| NN1C(=O)/C(=C/c2c[nH]c3ccccc23)SC1=S | 3.61 | 22.5 | > 50 | > 50 | 6 | 5.69 | Active | 1.81 ×10⁴ /M | Active | 504 to 507 |  |
| O=C1NC(=S)S/C1=C\c1c[nH]c2ccc(Br)cc12 | > 50 | > 50 | 11.7 | 3.65 | 8 | 1.56 |  | 6.31 ×10³ /M |  | 462 to 465 |  |
| O=C1NC(=O)/C(=C/c2c[nH]c3ccc(Br)cc23)S1 | > 50 | > 50 | > 50 | > 50 |  | 5.24 |  | 3.86 ×10³ /M |  | 457 | 6 |
| NN1C(=O)/C(=C/c2c[nH]c3ccc(Br)cc23)SC1=S | 6.74 | > 50 | > 50 | > 50 | 23 | 1.84 |  | 2.96 ×10³ /M |  | 411 to 413 |  |
| COc1cccc2c1C(=O)c1c(O)c3c(c(O)c1C2=O)C[C@@](O)(C(=O)CO)C[C@@H]3O[C@H]1C[C@H](N)[C@H](O)[C@H](C)O1 [DOXORUBICIN] | 0.01 | 6.25 | 4.61 | 2.71 |  |  |  |  |  |  |  |
| O=C1NC(=S)S/C1=C\c1c[nH]c2ccccc12 | > 50 | > 50 | > 50 | > 50 | 75 | 4.51 |  | 1.78 ×10³ /M |  | 436 to 462 |  |
| O=C1NC(=O)/C(=C/c2c[nH]c3ccccc23)S1 | 12.8 | > 50 | 1.93 | > 50 |  | 7.26 |  | 1.59 ×10³ /M |  | 378 | 24 |
| O=C1NC(=S)N/C1=C\c1c[nH]c2ccccc12 | > 50 | > 50 | > 50 | 12.4 |  | 6.27 |  | 1.36 ×10³ /M |  | 423 | 11 |
